Data as given in US8987228B2, “Pharmaceutical composition including an A3 adenosine receptor agonist 1-deooxy-1-[N6-(3-idobenzyl)-adenin-9-yl]-N-methyl-β-D-ribofuronamide(IB-MECA/CF-101) for treatment of psoriasis” (Can-Fite Biopharma Ltd., priority 2009, dated 2015).
Entries after “also recorded” stand apart in the source; their conditions may differ.

System: moderate-to-severe chronic plaque psoriasis
Assay: Phase 2, multi-center, randomized, double-blind, placebo-controlled clinical study in psoriasis patients (PASI assessment)
Assay type: in vivo, human
Details: 12 weeks
Description: A Phase 2, multi-center, randomized, double-blind, placebo-controlled clinical study was conducted in adult males and females, with ages of 18 to 70 years, with a diagnosis of moderate-to-severe chronic plaque psoriasis.
Eligible patients were randomly assigned to receive either placebo or a clinical grade […][N^6-(3-iodobenzyl)-adenin-9-yl]-N-methyl-β-D-ribofuronamide, IB-MECA (code-named by the study sponsor, Can-Fite Biopharma, the Assignee of this application, as “CF101”) at doses of 1 mg, 2 mg and 4 mg, taken orally twice daily (namely, total daily doses of 2 mg, 4 mg and 8 mg, respectively). IB-MECA was formulated in a tablet formulation as detailed in Table 1 below. Patients were instructed to take the formulation on an empty stomach. The study duration was 12 weeks.
The study was carried out in cohorts:
Cohort 1: 1 mg IB-MECA or placebo.
Cohort 2: 2 mg IB-MECA or placebo.
Cohort 3: 4 mg IB-MECA or placebo.
Within each cohort, patients were randomly assigned to either IB-MECA or placebo in a 3:1 ratio.
Disease was assessed using the Psoriasis Area and Severity Index (PASI).
Sixty two (62) patients were evaluated that belonged ton the following treatment groups (administration twice a day): […]

SMILES: CNC(=O)[C@H]1O[C@@H](n2cnc3c(NCc4cccc(I)c4)ncnc32)[C@H](O)[C@@H]1O [IB-MECA, 1-deoxy-1-[N^6-(3-iodobenzyl)-adenin-9-yl]-N-methyl-β-D-ribofuronamide]
- change in the Psoriasis Area and Severity Index (PASI) score from baseline over the study period (2 mg IB-MECA orally twice daily (total 4 mg/day) versus placebo, patients with moderate-to-severe chronic plaque psoriasis, FIG. 1): continuous improvement in the patients' condition throughout the course of the study; also recorded: marked effect
- difference between three doses of IB-MECA in the change in the PASI score from baseline over the study period (2 mg twice daily (total 4 mg/day) compared with 1 mg and 4 mg twice daily (2 mg/day and 8 mg/day), oral, FIG. 2): considerably greater response over the two other tested dose groups; also recorded: significantly more effective in treatment of the psoriatic plaques than treatment of psoriasis at daily doses of 2 mg or 8 mg; also recorded: superior to a lower daily dose of 2 mg or a higher dose of 8 mg
